Laboratory results: ChEMBL document CHEMBL5376007, “Discovery of Novel PD-L1 Inhibitors That Induce the Dimerization, Internalization, and Degradation of PD-L1 Based on the Fragment Coupling Strategy” (J Med Chem, 2023)
pEC50, pIC50, pKd: −log10 of the molar value. Active and inactive are the calls of the source. The rule behind the calls is not given here.

Legend:
[1] = target: T1, Programmed cell death 1 ligand 1 (Homo sapiens, UniProt Q9NZQ7); assay: Inhibition of human recombinant PDL1 expressed in HEK293 cells assessed as restoration of Jurkat T cell activity by measuring increase in IFNgamma secretion at 1 uM incubated for 24 hrs by ELISA; type: cell-based; parameters: Activity: scale not given: the % may be the effect or the level left
[2] = target: Programmed cell death protein 1/Programmed cell death 1 ligand 1 (Homo sapiens, UniProt Q9NZQ7); assay: Inhibition of interaction of Fc(IgG1)-Avi)-(Biotin)-fused human PDL1 (19 to 239 residues)/Eu-labeled human PD-1 (25 to 167 residues) expressed in HEK293 cells pretreated with PDL1 for 15 mins followed by PD-1 addition and measured after 90 mins by TR-FRET assay; type: cell-based
CT26 [3] = assay: Antitumor activity against mouse CT26 cells xenografted in BALB/c mouse assessed as inhibition of tumor growth at 20 mg/kg, ip qd for 2 weeks; type: functional, organism-based
CT26 [4] = assay: In vivo inhibition of PDL1 in BALB/c mouse xenografted with mouse CT26 cells assessed as induction of PDL1 degradation by measuring decrease in PDL1 protein expression in tumor at 20 mg/kg, ip qd for 2 weeks by immunohistochemical staining based analysis; type: functional, organism-based
CT26 [5] = assay: Antitumor immunity against mouse CT26 cells xenografted in BALB/c mouse assessed as increase in infiltration of CD8+ cells in tumor at 20 mg/kg, ip qd for 2 weeks by immunohistochemical staining based analysis; type: functional, organism-based
[6] = target: T1, Programmed cell death 1 ligand 1; assay: Inhibition of PDL1 in human RKO cells assessed as […] PDL1 internalization into cytosol at 2 uM by immunofluorescence assay; type: subcellular; settings: time 2-6 hrs, TDE = time-dependent effect
CT26 [7] = assay: Antitumor activity against mouse CT26 cells xenografted in BALB/c mouse assessed as inhibition of tumor growth administered ip qd for 2 weeks; type: functional, organism-based; settings: dose 10-20 mg/kg
[8] = Toxicity against BALB/c mouse xenografted with mouse CT26 cells assessed as mortality at 10 to 20 mg/kg, ip qd for 2 weeks; type: organism-based; settings: in vivo, 336 h, dose 10-20 mg/kg
[9] = Tmax in Sprague-Dawley rat at 25 mg/kg, po by LC-MS/MS analysis; type: ADME, organism-based; settings: in vivo
[10] = AUC(0 to t) in Sprague-Dawley rat at 25 mg/kg, po by LC-MS/MS analysis; type: ADME, organism-based; parameters: dose 25 mg/kg, route po; settings: in vivo
CT26 [11] = assay: Antitumor activity against mouse CT26 cells xenografted in BALB/c mouse assessed as decrease in tumor weight at 20 mg/kg, ip qd for 2 weeks; type: functional; settings: CT26, 336 h
[12] = target: T1, Programmed cell death 1 ligand 1; assay: Inhibition of PDL1 in human MDA-MB-231 cells assessed as induction of PDL1 degradation at 1 to 5 uM incubated for 24 hrs by western blot analysis; type: cell-based; settings: dose 1-5 µM
[13] = target: T1, Programmed cell death 1 ligand 1; assay: Inhibition of human recombinant PDL1 expressed in HEK293 cells assessed as restoration of Jurkat T cell activity by measuring increase in IL-2 secretion incubated for 24 hrs by ELISA; type: cell-based; settings: dose 0.3125-2.5 µM
[14] = Cmax in Sprague-Dawley rat at 25 mg/kg, po by LC-MS/MS analysis; type: ADME, organism-based; parameters: dose 25 mg/kg, route po; settings: in vivo
CT26 [15] = assay: Antitumor immunity against mouse CT26 cells xenografted in BALB/c mouse assessed as increase in infiltration of CD8+ cells in tumor administered ip qd for 2 weeks by immunohistochemical staining based analysis; type: functional, organism-based; settings: dose 10-20 mg/kg
CT26 [16] = assay: In vivo inhibition of PDL1 in BALB/c mouse xenografted with mouse CT26 cells assessed as induction of PDL1 degradation by measuring decrease in PDL1 protein expression in tumor at 10 to 20 mg/kg, ip qd for 2 weeks by immunohistochemical staining based analysis; type: functional, organism-based; settings: dose 10-20 mg/kg
[17] = target: T1, Programmed cell death 1 ligand 1; assay: Inhibition of PDL1 in human RKO cells assessed as […] PDL1 internalization into cytosol incubated for 12 hrs by immunofluorescence assay; type: subcellular; settings: dose 0.5-2 µM
[18] = Half life in Sprague-Dawley rat at 25 mg/kg, po by LC-MS/MS analysis; type: ADME, organism-based; settings: in vivo
[19] = Oral bioavailability in Sprague-Dawley rat at 25 mg/kg by LC-MS/MS analysis; type: ADME, organism-based; settings: in vivo
MDA-MB-231 = assay: Antitumor activity against human MDA-MB-231 cells cocultured with CD3/CD28/CD2 T cell activator stimulated human PBMC cells assessed as increase in tumor cell viability incubated for 12 hrs by LDH assay; settings: MDA-MB-231, 12 h
[20] = Half life in Sprague-Dawley rat at 5 mg/kg, iv by LC-MS/MS analysis; type: ADME, organism-based; settings: in vivo
[21] = Tmax in Sprague-Dawley rat at 5 mg/kg, iv by LC-MS/MS analysis; type: ADME, organism-based; settings: in vivo
CT26 [22] = assay: Antitumor activity against mouse CT26 cells xenografted in BALB/c mouse assessed as decrease in tumor weight at 10 mg/kg, ip qd for 2 weeks; type: functional; settings: CT26, 336 h
[23] = target: T1, Programmed cell death 1 ligand 1; assay: Inhibition of PDL1 (unknown origin) assessed as induction of PDL1 dimerization at protein to compound concentration ratio of 1:2 incubated for overnight by SEC analysis
L02 = assay: Cytotoxicity against human L02 cells assessed as cell viability at 0.625 to 10 uM incubated for 24 hrs by CCK8 assay; type: toxicity, cell-based; settings: l02, 24 h, dose 0.625-10 µM
[24] = target: Programmed cell death 1 ligand 1 (Mus musculus, UniProt Q9EP73); assay: Binding affinity to RED-NHS dye labeled mouse PDL1 incubated for 10 mins away from light by microscale thermophoresis analysis
[25] = Toxicity against BALB/c mouse xenografted with mouse CT26 cells assessed as body weight loss at 10 to 20 mg/kg, ip qd for 2 weeks; type: organism-based; settings: in vivo, 336 h, dose 10-20 mg/kg
NCM460 = assay: Cytotoxicity against human NCM460 cells assessed as cell viability at 0.625 to 10 uM incubated for 24 hrs by CCK8 assay; type: toxicity, cell-based; settings: ncm460, 24 h, dose 0.625-10 µM
[26] = target: T1, Programmed cell death 1 ligand 1; assay: Binding affinity to RED-NHS dye labeled human PDL1 incubated for 10 mins away from light by microscale thermophoresis analysis
[27] = target: T1, Programmed cell death 1 ligand 1; assay: Inhibition of human recombinant PDL1 expressed in HEK293 cells assessed as restoration of Jurkat T cell activity by measuring increase in IL-2 secretion at 2.5 uM incubated for 24 hrs in presence of PD-L1v242 by ELISA; type: cell-based
[28] = Cmax in Sprague-Dawley rat at 5 mg/kg, iv by LC-MS/MS analysis; type: ADME, organism-based; parameters: dose 5 mg/kg, route iv; settings: in vivo
CT26 [29] = assay: Antitumor activity against mouse CT26 cells xenografted in BALB/c mouse assessed as tumor shrinkage and reduction of tumor growth at 20 mg/kg, ip qd for 2 weeks by Hematoxylin-eosin staining based analysis; type: functional, organism-based
[30] = AUC(0 to t) in Sprague-Dawley rat at 5 mg/kg, iv by LC-MS/MS analysis; type: ADME, organism-based; parameters: dose 5 mg/kg, route iv; settings: in vivo

Programmed cell death protein 1/Programmed cell death 1 ligand 1, sequence (Q15116 whole entry, the tested form may be a part): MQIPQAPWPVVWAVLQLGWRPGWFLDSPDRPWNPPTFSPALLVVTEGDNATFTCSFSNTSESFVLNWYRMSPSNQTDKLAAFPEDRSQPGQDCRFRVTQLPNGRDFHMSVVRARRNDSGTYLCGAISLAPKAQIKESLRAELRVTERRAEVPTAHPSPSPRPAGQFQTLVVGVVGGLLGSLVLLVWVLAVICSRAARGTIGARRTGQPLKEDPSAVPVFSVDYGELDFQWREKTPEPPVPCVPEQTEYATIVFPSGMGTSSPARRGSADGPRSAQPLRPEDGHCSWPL
Programmed cell death protein 1/Programmed cell death 1 ligand 1, sequence (Q9NZQ7 whole entry, the tested form may be a part): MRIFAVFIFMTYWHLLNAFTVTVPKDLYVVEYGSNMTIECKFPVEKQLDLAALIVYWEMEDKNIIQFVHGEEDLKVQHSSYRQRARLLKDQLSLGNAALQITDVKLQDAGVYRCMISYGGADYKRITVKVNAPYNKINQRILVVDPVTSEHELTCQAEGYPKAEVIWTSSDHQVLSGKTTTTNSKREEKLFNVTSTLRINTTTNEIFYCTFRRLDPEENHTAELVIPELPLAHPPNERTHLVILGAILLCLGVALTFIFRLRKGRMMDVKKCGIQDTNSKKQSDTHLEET
T1 sequence (Q9NZQ7 whole entry, the tested form may be a part): as above
Programmed cell death 1 ligand 1 (Mus musculus, UniProt Q9EP73), sequence (Q9EP73 whole entry): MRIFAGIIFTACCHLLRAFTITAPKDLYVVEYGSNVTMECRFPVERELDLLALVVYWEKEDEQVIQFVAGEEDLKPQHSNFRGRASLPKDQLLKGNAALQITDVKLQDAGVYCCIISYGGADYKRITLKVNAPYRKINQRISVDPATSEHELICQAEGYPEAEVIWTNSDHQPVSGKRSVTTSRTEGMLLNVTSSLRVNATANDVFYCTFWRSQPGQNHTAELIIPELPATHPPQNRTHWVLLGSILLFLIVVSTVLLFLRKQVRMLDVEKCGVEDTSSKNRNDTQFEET

Cc1c(-c2nnc(Nc3cccc(CN4CC[C@@H](O)C4)c3)o2)cccc1-c1cccc(-c2nnc(Nc3cccc(CN4CC[C@@H](O)C4)c3)o2)c1C
inhibition [1]: Active | pIC50 [2]: 7.51

Cc1c(C(=O)Nc2ccc(CNCCO)cc2)cccc1-c1cccc(-c2nnc(Nc3cccc(CNCCO)c3)o2)c1C
pIC50 [2]: 6.90

COc1nc(-c2cccc(-c3cccc(-c4nnc(Nc5cccc(CNCCO)c5)o4)c3C)c2C)ccc1CNCCNC(C)=O
Activity [1]: 66% | pIC50 [2]: 7.63

COc1nc(O[C@H]2CCc3c(-c4cccc(C(=O)Nc5ccc(CNCCN(C)C)cn5)c4Cl)cccc32)c(Cl)cc1CNCCN(C)C
pIC50 [2]: 8.38

COc1nc(O[C@H]2CCc3c(-c4cccc(C(=O)Nc5ccc(CN6CC(O)C6)cn5)c4Cl)cccc32)c(Cl)cc1CN1CC(O)C1
pIC50 [2]: 8.20

CC(=O)NCCNCc1cccc(Nc2nnc(-c3cccc(-c4cccc(-c5nnc(Nc6cccc(CNCCNC(C)=O)c6)o5)c4C)c3C)o2)c1
pIC50 [2]: 7.23

COc1nc(NC(=O)c2cccc(-c3cccc4c3CC[C@@H]4Oc3nc(OC)c(CNCCO)cc3Cl)c2Cl)ccc1CNCCO
pIC50 [2]: 7.74

Cc1c(-c2ccc(CNCCO)cc2)cccc1-c1cccc(-c2nnc(Nc3cccc(CNCCO)c3)o2)c1C
pIC50 [2]: 7.43

Cc1c(-c2nnc(Nc3cccc(CNCCO)c3)o2)cccc1-c1cccc(-c2nnc(Nc3cccc(CNCCO)c3)o2)c1C
pIC50 [2]: 7.11

Cc1c(-c2nnc(Nc3ccc(CNCCO)cc3)o2)cccc1-c1cccc(-c2nnc(Nc3cccc(CNCCO)c3)o2)c1C
pIC50 [2]: 6.15

COc1nc(O[C@H]2CCc3c(-c4cccc(C(=O)Nc5ccc(CNCCNC(C)=O)c(C(F)(F)F)n5)c4Cl)cccc32)c(Cl)cc1CNCCNC(C)=O
pIC50 [2]: 7.73

Cc1c(-c2nnc(Nc3cccc(CNCCO)c3)o2)cccc1-c1cccc(C(=O)Nc2ccc(CNCCO)cn2)c1Cl
pIC50 [2]: 8.09

Cc1c(-c2nnc(Nc3ccc(CN4CC[C@@H](O)C4)cc3)o2)cccc1-c1cccc(-c2nnc(Nc3cccc(CN4CC[C@@H](O)C4)c3)o2)c1C
pIC50 [2]: 5.93

COc1nc(NC(=O)c2cccc(-c3cccc4c3CC[C@@H]4Oc3nc(OC)c(CNCCNC(C)=O)cc3Cl)c2Cl)ccc1CNCCNC(C)=O
pIC50 [2]: 7.66

CC(=O)NCCNCc1ccc(NC(=O)c2cccc(-c3cccc(-c4nnc(Nc5cccc(CNCCO)c5)o4)c3C)c2C)nc1
pIC50 [2]: 7.38

Cc1c(-c2cccc(-c3ccc(CNCCO)cc3)c2)cccc1-c1nnc(Nc2cccc(CNCCO)c2)o1
pIC50 [2]: 7.38

COc1nc(-c2cccc(-c3cccc(-c4nnc(Nc5cccc(CNCCO)c5)o4)c3C)c2C)ccc1CNCCO
inhibition [1]: Active | pIC50 [2]: 7.86

COc1nc(O[C@H]2CCc3c(-c4cccc(C(=O)Nc5ccc(CNCCO)cn5)c4Cl)cccc32)c(Cl)cc1CNCCO
pIC50 [2]: 8.37

COc1nc(O[C@H]2CCc3c(-c4cccc(C(=O)Nc5ccc(CNCCO)c(C(F)(F)F)n5)c4Cl)cccc32)c(Cl)cc1CNCCO
pIC50 [2]: 7.78

COc1nc(O[C@H]2CCc3c(-c4cccc(C(=O)Nc5ccc(CN6CCC7(CC6)CNC(=O)C7)cn5)c4Cl)cccc32)c(Cl)cc1CN1CCC2(CC1)CNC(=O)C2
pIC50 [2]: 7.76

Cc1c(C(=O)Nc2ccc(CNCCO)cn2)cccc1-c1cccc(-c2nnc(Nc3cccc(CNCCO)c3)o2)c1C
pIC50 [2]: 7.84

COc1nc(O[C@H]2CCc3c(-c4cccc(C(=O)Nc5ccc(CNCCNC(C)=O)c(F)n5)c4Cl)cccc32)c(Cl)cc1CNCCNC(C)=O
pIC50 [2]: 7.81

Cc1c(-c2nnc(Nc3cccc(CNCC(=O)O)c3)o2)cccc1-c1cccc(-c2nnc(Nc3cccc(CNCC(=O)O)c3)o2)c1C
pIC50 [2]: 7.16

Cc1c(-c2cccc(-c3nnc(Nc4cccc(CNCCO)c4)o3)c2)cccc1-c1nnc(Nc2cccc(CN3CC[C@@H](O)C3)c2)o1
pIC50 [2]: 7.29

COc1nc(O[C@H]2CCc3c(-c4cccc(C(=O)Nc5ccc(CNCCNC(C)=O)cn5)c4Cl)cccc32)c(Cl)cc1CNCCNC(C)=O
inhibition [1]: Active | pIC50 [2]: 8.39

CC(=O)NCCNCc1ccc(Nc2nnc(-c3cccc(-c4cccc(-c5nnc(Nc6cccc(CNCCNC(C)=O)c6)o5)c4C)c3C)o2)cc1
pIC50 [2]: 6.05

CC(=O)NCCNCc1cccc(Nc2nnc(-c3cccc(-c4cccc(-c5nnc(Nc6cccc(CNCCO)c6)o5)c4C)c3C)o2)c1
pIC50 [2]: 7.42

Cc1c(Nc2nccc3cc(CN4CC[C@@H](O)C4)cnc23)cccc1-c1cccc(-c2nc3cc(CN4CC[C@@H](C(=O)O)C4)cc(C#N)c3o2)c1C
Activity (CT26 [3]): Active | inhibition (CT26 [4]): inactive | Activity (CT26 [5]): Active

Cc1c(-c2ccccc2)cccc1-c1nnc(Nc2cccc(CNCCO)c2)o1
pIC50 [2]: 7.56

COc1nc(O[C@H]2CCc3c(-c4cccc(C(=O)Nc5ccc(CNC[C@@H]6CCC(=O)N6)cn5)c4Cl)cccc32)c(Cl)cc1CNC[C@@H]1CCC(=O)N1
inhibition [6]: Tde | Activity [1]: 80% | Activity (CT26 [7]): Dose-Dependent Effect | Activity [8]: Non-Toxic | Tmax [9]: 0.3 h | AUC(0-t) [10]: 73.1 ng·h/mL | pIC50 [2]: 8.74 | inhibition in vivo at 20 mg/kg (CT26 [11]): 51% | inhibition [12]: Active | inhibition [13]: Dose-Dependent Effect | Cmax [14]: 22.6 ng/mL | Activity (CT26 [15]): Dose-Dependent Effect | inhibition (CT26 [16]): Active | inhibition [17]: Dose-Dependent Effect | half-life [18]: 5.8 h | bioavailability [19]: 1.6% | pEC50 (MDA-MB-231): ~6.10 | half-life [20]: 5.3 h | Tmax [21]: 1.8 min | inhibition in vivo at 10 mg/kg (CT26 [22]): 37% | inhibition [23]: Active | Activity (L02): Non-Toxic | pKd [24]: 6.10 | Activity [25]: Non-Toxic | Activity (NCM460): Non-Toxic | pKd [26]: 7.62 | inhibition [27]: Active | Cmax [28]: 2370 ng/mL | Activity (CT26 [29]): Active | AUC(0-t) [30]: 890 ng·h/mL

COc1nc(O[C@H]2CCc3c(-c4cccc(C(=O)Nc5ccc(CNCCO)c(F)n5)c4Cl)cccc32)c(Cl)cc1CNCCO
pIC50 [2]: 7.79
